Tests used:
[1] = molecular target: T1, Neuropeptide Y receptor type 1 (Homo sapiens, UniProt P25929); assay type: cell membranes, Membrane; conditions: sk-n-mc; also: in other assays of this panel Not Active means under 50% inhibition at 10 µM
T1 sequence (P25929 whole entry): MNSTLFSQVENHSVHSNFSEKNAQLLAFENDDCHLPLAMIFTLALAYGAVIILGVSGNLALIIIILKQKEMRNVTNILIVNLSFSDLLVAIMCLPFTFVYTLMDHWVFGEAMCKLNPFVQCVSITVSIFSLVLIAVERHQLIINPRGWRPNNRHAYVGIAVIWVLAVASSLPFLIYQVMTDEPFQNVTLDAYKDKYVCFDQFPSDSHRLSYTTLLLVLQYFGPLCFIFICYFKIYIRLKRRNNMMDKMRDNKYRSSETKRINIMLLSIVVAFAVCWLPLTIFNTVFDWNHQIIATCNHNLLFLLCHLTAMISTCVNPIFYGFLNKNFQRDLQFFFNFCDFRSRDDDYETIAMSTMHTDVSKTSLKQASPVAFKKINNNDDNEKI

[2] = molecular target: T2, Vasoactive intestinal polypeptide receptor 1 (Homo sapiens, UniProt P32241); assay type: cell membranes, Membrane; conditions: ht-29; also: in other assays of this panel Not Active means under 50% inhibition at 10 µM
T2 sequence (P32241 whole entry): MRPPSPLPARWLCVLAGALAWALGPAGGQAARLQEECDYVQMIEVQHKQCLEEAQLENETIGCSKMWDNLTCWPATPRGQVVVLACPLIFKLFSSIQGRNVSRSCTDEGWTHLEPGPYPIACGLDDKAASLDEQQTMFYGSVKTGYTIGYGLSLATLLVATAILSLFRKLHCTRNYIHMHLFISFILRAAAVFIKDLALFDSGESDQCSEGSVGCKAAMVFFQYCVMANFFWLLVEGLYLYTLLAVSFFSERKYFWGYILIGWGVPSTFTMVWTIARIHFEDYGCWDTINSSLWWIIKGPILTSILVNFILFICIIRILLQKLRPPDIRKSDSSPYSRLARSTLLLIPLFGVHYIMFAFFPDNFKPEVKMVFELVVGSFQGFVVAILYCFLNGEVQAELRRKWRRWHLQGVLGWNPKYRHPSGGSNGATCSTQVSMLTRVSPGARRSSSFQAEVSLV

[3] = DRUGMATRIX: Serotonin (5-Hydroxytryptamine) 5-HT3 radioligand binding (ligand: [3H] GR-65630); assay type: cell membranes, Membrane; conditions: hek293; Not Active = under 50% inhibition at 10 µM
[4] = DRUGMATRIX: Platelet-Derived Growth Factor (PDGF) radioligand binding (ligand: [125I] PDGF); assay type: cell-based; conditions: nih3t3; Not Active = under 50% inhibition at 10 µM
[5] = molecular target: T3, 5-hydroxytryptamine receptor 1A (Rattus norvegicus, UniProt P19327); assay type: cell membranes, CHO-K1, Membrane; conditions: cho-k1; also: in other assays of this panel Not Active means under 50% inhibition at 10 µM
T3 sequence (P19327 whole entry): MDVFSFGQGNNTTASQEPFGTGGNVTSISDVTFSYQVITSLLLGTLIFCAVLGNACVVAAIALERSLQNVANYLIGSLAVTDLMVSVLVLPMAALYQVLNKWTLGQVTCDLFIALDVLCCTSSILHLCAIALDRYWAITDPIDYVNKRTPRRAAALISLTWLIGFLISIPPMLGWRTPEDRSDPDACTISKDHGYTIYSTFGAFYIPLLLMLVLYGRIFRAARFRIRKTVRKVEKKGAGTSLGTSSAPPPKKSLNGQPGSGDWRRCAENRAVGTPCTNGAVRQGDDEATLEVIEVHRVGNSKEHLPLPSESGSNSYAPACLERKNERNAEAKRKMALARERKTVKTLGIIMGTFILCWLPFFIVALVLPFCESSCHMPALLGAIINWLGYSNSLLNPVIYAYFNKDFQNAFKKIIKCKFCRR

[6] = DRUGMATRIX: Calcium Channel Type L, Phenylalkylamine radioligand binding (ligand: [3H] (-)-Desmethoxyverapamil (D-888)); assay type: cell membranes, Rattus norvegicus, Wistar, Brain, Membrane; conditions: Not Active = under 50% inhibition at 10 µM
[7] = molecular target: T4, C-X-C chemokine receptor type 2 (Homo sapiens, UniProt P25025); assay type: cell membranes, Membrane; conditions: cho-k1; also: in other assays of this panel Not Active means under 50% inhibition at 10 µM
T4 sequence (P25025 whole entry): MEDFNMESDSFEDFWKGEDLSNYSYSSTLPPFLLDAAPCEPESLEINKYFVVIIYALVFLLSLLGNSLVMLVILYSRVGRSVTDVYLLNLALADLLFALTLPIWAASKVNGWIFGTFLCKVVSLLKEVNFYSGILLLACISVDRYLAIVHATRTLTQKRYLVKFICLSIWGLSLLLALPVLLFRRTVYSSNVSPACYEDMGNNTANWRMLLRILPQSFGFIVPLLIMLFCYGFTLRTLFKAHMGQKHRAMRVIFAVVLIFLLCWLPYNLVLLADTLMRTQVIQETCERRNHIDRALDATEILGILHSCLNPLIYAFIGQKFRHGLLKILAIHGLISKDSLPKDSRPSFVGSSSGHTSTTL

Adenosine receptor A3 = molecular target: T5, Adenosine receptor A3 (Homo sapiens, UniProt P0DMS8); assay type: cell membranes, CHO-K1, Membrane; conditions: cho-k1
T5 sequence (P0DMS8 whole entry): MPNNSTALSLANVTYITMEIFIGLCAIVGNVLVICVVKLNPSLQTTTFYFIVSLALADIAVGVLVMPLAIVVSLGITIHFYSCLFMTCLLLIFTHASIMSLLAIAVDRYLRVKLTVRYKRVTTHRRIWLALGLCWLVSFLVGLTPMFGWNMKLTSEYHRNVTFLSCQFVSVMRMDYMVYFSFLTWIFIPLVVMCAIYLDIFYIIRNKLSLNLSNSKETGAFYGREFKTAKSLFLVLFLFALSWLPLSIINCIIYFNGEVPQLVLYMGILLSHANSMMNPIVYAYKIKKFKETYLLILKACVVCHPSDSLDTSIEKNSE

Substance-K receptor = molecular target: T6, Substance-K receptor (Homo sapiens, UniProt P21452); assay type: cell membranes, CHO, Membrane; conditions: cho; also: in other assays of this panel Not Active means under 50% inhibition at 10 µM
T6 sequence (P21452 whole entry): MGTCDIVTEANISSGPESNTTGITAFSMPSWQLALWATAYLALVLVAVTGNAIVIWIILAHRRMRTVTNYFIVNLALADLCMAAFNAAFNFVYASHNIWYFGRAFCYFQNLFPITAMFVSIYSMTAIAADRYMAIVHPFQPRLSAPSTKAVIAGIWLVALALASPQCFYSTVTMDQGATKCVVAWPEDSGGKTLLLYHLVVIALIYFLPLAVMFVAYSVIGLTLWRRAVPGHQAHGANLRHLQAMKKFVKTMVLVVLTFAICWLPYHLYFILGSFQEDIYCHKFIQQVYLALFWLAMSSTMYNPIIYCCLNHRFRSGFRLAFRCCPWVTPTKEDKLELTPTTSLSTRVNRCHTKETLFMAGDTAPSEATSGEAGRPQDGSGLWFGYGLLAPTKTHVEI

[8] = DRUGMATRIX: Phosphodiesterase PDE4 enzyme inhibition (substrate: [3H]cAMP + cAMP); conditions: u-937; Not Active = under 50% inhibition at 10 µM

In the case of N#C[C@H](O[C@@H]1O[C@H](CO[C@@H]2O[C@H](CO)[C@@H](O)[C@H](O)[C@H]2O)[C@@H](O)[C@H](O)[C@H]1O)c1ccccc1 [AMYGDALIN], the IC50 [1] is reported as “Not Active”, the IC50 [2] is reported as “Not Active” and the IC50 [3] is reported as “Not Active”. The Ki [3] was “Not Active”, the IC50 [4] was “Not Active” and the Ki [4] was “Not Active”. For the same compound, the IC50 [5] was “Not Active”, the IC50 [6] was “Not Active” and the Ki [6] was “Not Active”. The IC50 [7] was “Not Active”, the IC50 (Adenosine receptor A3) was “Not Active” and the IC50 (Substance-K receptor) was “Not Active”. The IC50 [8] was “Not Active” and the Ki [8] was “Not Active”.

In the case of CCOC(=O)OC(C)OC1=C(C(=O)Nc2ccccn2)N(C)S(=O)(=O)c2ccccc21 (configuration not stated) [AMPIROXICAM], the IC50 [1] is reported as “Not Active”, the IC50 [2] is reported as “Not Active” and the IC50 [3] is reported as “Not Active”. For the same compound, the Ki [3] was “Not Active”, the IC50 [4] was “Not Active” and the Ki [4] was “Not Active”. For the same compound, the IC50 [5] was “Not Active”, the IC50 [6] was “Not Active” and the Ki [6] was “Not Active”. For the same compound, the IC50 [7] was “Not Active”, the IC50 (Adenosine receptor A3) was “Not Active” and the IC50 (Substance-K receptor) was “Not Active”. The IC50 [8] was “Not Active” and the Ki [8] was “Not Active”.

With GOLD SODIUM THIOMALATE the IC50 [1] was “Not Active”, the Ki [1] was “Not Active” and the IC50 [2] was “Not Active”. The Ki [2] was “Not Active”, the IC50 [3] was “Not Active” and the Ki [3] was “Not Active”. The IC50 [4] was “Not Active”, the Ki [4] was “Not Active” and the IC50 [5] was “Not Active”. The Ki [5] was “Not Active”, the IC50 [6] was “Not Active” and the Ki [6] was “Not Active”. For the same compound, the IC50 [7] was “Not Active”, the Ki [7] was “Not Active” and the IC50 (Adenosine receptor A3; read-out: IC50) was 1490 nM. For the same compound, the Ki (Adenosine receptor A3; read-out: Ki) was 843 nM, the IC50 (Substance-K receptor) was “Not Active” and the Ki (Substance-K receptor) was “Not Active”. The IC50 [8] was “Not Active” and the Ki [8] was “Not Active”.

With C[C@]12CCC(=O)C=C1CC[C@@H]1[C@@H]2C(=O)C[C@@]2(C)[C@H]1CC[C@]2(O)C(=O)CO [CORTISONE] the IC50 [1] was “Not Active”, the IC50 [2] was “Not Active” and the IC50 [3] was “Not Active”. For the same compound, the Ki [3] was “Not Active”, the IC50 [4] was “Not Active” and the Ki [4] was “Not Active”. The IC50 [5] was “Not Active”, the IC50 [6] was “Not Active” and the Ki [6] was “Not Active”. For the same compound, the IC50 [7] was “Not Active”, the IC50 (Adenosine receptor A3) was “Not Active” and the IC50 (Substance-K receptor) was “Not Active”. For the same compound, the IC50 [8] was “Not Active” and the Ki [8] was “Not Active”.

With CCCC[C@@H](CC)COC(=O)c1ccccc1C(=O)OC[C@@H](CC)CCCC [BIS(2-ETHYLHEXYL)PHTHALATE] the IC50 [1] was “Not Active”, the IC50 [2] was “Not Active” and the IC50 [3] was “Not Active”. For the same compound, the Ki [3] was “Not Active”, the IC50 [4] was “Not Active” and the Ki [4] was “Not Active”. For the same compound, the IC50 [5] was “Not Active”, the IC50 [6] was “Not Active” and the Ki [6] was “Not Active”. The IC50 [7] was “Not Active”, the IC50 (Adenosine receptor A3) was “Not Active” and the IC50 (Substance-K receptor) was “Not Active”. For the same compound, the IC50 [8] was “Not Active” and the Ki [8] was “Not Active”.

In the case of CCc1ccc(C(=O)C(C)CN2CCCCC2)cc1 (configuration not stated) [EPERISONE], the IC50 [1] is reported as “Not Active”, the IC50 [2] is reported as “Not Active” and the IC50 [3] is reported as “Not Active”. For the same compound, the Ki [3] was “Not Active”, the IC50 [4] was “Not Active” and the Ki [4] was “Not Active”. The IC50 [5] was “Not Active”, the IC50 [6] was “Not Active” and the Ki [6] was “Not Active”. For the same compound, the IC50 [7] was “Not Active”, the IC50 (Adenosine receptor A3) was “Not Active” and the IC50 (Substance-K receptor) was “Not Active”. For the same compound, the IC50 [8] was “Not Active” and the Ki [8] was “Not Active”.

In the case of CC(C)n1c(/C=C/C(O)CC(O)CC(=O)O)c(-c2ccc(F)cc2)c2ccccc21 (configuration not stated) [FLUVASTATIN], the IC50 [1] is reported as “Not Active”, the IC50 [2] is reported as “Not Active” and the IC50 [3] is reported as “Not Active”. The Ki [3] was “Not Active”, the IC50 [4] was “Not Active” and the Ki [4] was “Not Active”. For the same compound, the IC50 [5] was “Not Active”, the IC50 [6] was “Not Active” and the Ki [6] was “Not Active”. For the same compound, the IC50 [7] was “Not Active”, the IC50 (Adenosine receptor A3) was “Not Active” and the IC50 (Substance-K receptor) was “Not Active”. The IC50 [8] was “Not Active” and the Ki [8] was “Not Active”.

In the case of CN(C)[C@@H]1C(O)=C(C(N)=O)C(=O)[C@@]2(O)C(O)=C3C(=O)c4c(O)cccc4[C@@](C)(O)[C@H]3[C@H](O)[C@@H]12 [OXYTETRACYCLINE], the IC50 [1] is reported as “Not Active”, the IC50 [2] is reported as “Not Active” and the IC50 [3] is reported as “Not Active”. The Ki [3] was “Not Active”, the IC50 [4] was “Not Active” and the Ki [4] was “Not Active”. For the same compound, the IC50 [5] was “Not Active”, the IC50 [6] was “Not Active” and the Ki [6] was “Not Active”. For the same compound, the IC50 [7] was “Not Active”, the IC50 (Adenosine receptor A3) was “Not Active” and the IC50 (Substance-K receptor) was “Not Active”. For the same compound, the IC50 [8] was “Not Active” and the Ki [8] was “Not Active”.

In the case of O=C1CN=C(c2ccccc2)c2cc([N+](=O)[O-])ccc2N1 [NITRAZEPAM], the IC50 [1] is reported as “Not Active”, the IC50 [2] is reported as “Not Active” and the IC50 [3] is reported as “Not Active”. The Ki [3] was “Not Active”, the IC50 [4] was “Not Active” and the Ki [4] was “Not Active”. The IC50 [5] was “Not Active”, the IC50 [6] was “Not Active” and the Ki [6] was “Not Active”. The IC50 [7] was “Not Active”, the IC50 (Adenosine receptor A3) was “Not Active” and the IC50 (Substance-K receptor) was “Not Active”. The IC50 [8] was “Not Active” and the Ki [8] was “Not Active”.
